{"source": "patent US20060292186A1", "about": "“Self-nanoemulsifying oily formulation for the administration of poorly water-soluble drugs” (Novagali Pharma SA, priority 2003, published 2006)", "key": {"[1]": {"assay": "Dose versus plasma AUC pharmacokinetic study of paclitaxel SNEOF after cyclosporin A oral pre-treatment in wild type mice", "type": "in vivo, FVB Wild type Mice", "settings": "10-60 mg/kg p.o., CsA constant at 10 mg/kg", "procedure": "Each cohort consisted of 20 mice. At the specified times, animals were anaesthetized using metofane. After fixation on their back, with their chest in an upright position blood was collected by cardiac puncture using a 1 mL polypropylene syringe fitted with 25 g needle. Blood was transferred immediately into tubes containing potassium EDTA as anticoagulant and mixed by inversion. Blood samples were centrifuged vial for 5 min at 4000 g. The supernatant plasma fraction was transferred to a clean tube with appropriate label and stored at -20° C. until analyses. […] Plasma samples for subsequent analysis were obtained from all animals. […] Plasma concentration data were reported. Plasma concentrations versus time curves were fitted using the […] software package (version 3.0) and pharmacokinetic parameters: […]"}, "[2]": {"settings": "humans, without enhancer; cited from earlier work"}}, "data": [{"compound": "CC(=O)O[C@H]1C(=O)[C@@]2(C)[C@H]([C@H](OC(=O)c3ccccc3)[C@]3(O)C[C@H](OC(=O)[C@H](O)[C@@H](NC(=O)c4ccccc4)c4ccccc4)C(C)=C1C3(C)C)[C@]1(OC(C)=O)CO[C@@H]1C[C@@H]2O", "note": "[paclitaxel, Paclitaxel]", "values": [{"measurement": "linearity of oral bioavailability with dose", "setting": "[1]", "result": "not linear but decreased significantly with dose"}, {"measurement": "systemic bioavailability after oral paclitaxel administration", "setting": "[2]", "result": "less than 6%"}]}]}
